# Read-outs that look alike come from different tables or passages of the source.
# Key:
# [1] = system: heart and coronary circulation of anesthetized dogs; assay: Physiological effects of ionophores in anesthetized dogs: inotropic and coronary flow potency relative to lasalocid; format: in vivo, dog
# Description: Extended experimental studies were conducted involving a number of ionophores.
# ^1 Studies conducted on anesthetized dogs.
# ^2 Ionotropic potencies are expressed as the reciprocal of the dose
# required to double dP/dt Max., relative to the dose of Lasolocid required
# ^3 Coronary flow potency is calculated as the inotropic potency,
# normalized for coronary flow by the factor: coronary flow increased
# produced by doubling dose of the test ionophore/coronary flow produced by
# the doubling dose of Lasalocid.
# [2] = system: erythrocytes of whole fresh human blood; assay: RBC K+ leak: release of erythrocyte potassium into plasma fraction in vitro; format: cell-based; settings: for Ratio 2/4 (coronary flow potency / RBC K+ leak potency): dog coronary flow vs human RBC K+ leak; for Ratio 2/4 (coronary flow potency / RBC K+ leak potency) / Ratio 1/4 (inotropic potency / RBC K+ leak potency) / RBC K+ Leak Potency (column 4): relative to lasalocid; for Ratio 1/4 (inotropic potency / RBC K+ leak potency): dog inotropy vs human RBC K+ leak; for RBC K+ Leak Potency (column 4): reciprocal of concentration which leaked 15 mM K+/hr from erythrocytes
# Description: ^4 RBC K^+ leak potency is the reciprocal of the concentration
# which leaked 15 mMK^+ /hr. from the erythrocytes of whole fresh human
# blood, relative to that of Lasalocid. The reference concentration of
# The intrinsic ability of the test ionophores to release cellular potassium was measured using whole human blood and assaying the release of erythrocyte potassium into the plasma fraction in vitro.
# cardiac muscle = settings: in words; cited from earlier work
# [3] = system: skeletal and cardiac muscle; settings: prior finding ("it has been shown"); in words; cited from earlier work
# [4] = system: heart and coronary circulation of anesthetized dogs; assay: Hemodynamic effects of intravenous salinomycin in anesthetized normal dogs; format: in vivo, dog (normal female mongrel dogs); settings: for Coronary Flow, % of Control / dP/dt, % of Control: Table 1
# Description: Normal female mongrel dogs, weighing 30-35 lbs., were anesthetized with intravenous sodium pentobarbital (20 mg/kg.) and artificially ventilated. […] The derivative of the left ventricular pressure (dP/dt) was obtained from a Millar micromanometer-tipped catheter after differentiation by an appropriate R-C circuit. The electrocardiogram was monitored from standard leads attached to the extremities of the dog. All parameters were recorded simultaneously and continuously by a multichannel photographer recorder, and were monitored during the experiments by a multichannel oscilloscope.
# After all vital parameters had become stable, 0.03 mg/kg of salinomycin in absolute ethanol was administered over a period of 30 seconds to 1 minute. An hour later a larger dose of 0.06 mg/kg was administered to the same dog.
# Further information on the hemodynamic effects of salinomycin were obtained in a study involving seven dogs. Using the same procedure set forth hereinabove and after all vital parameters had become stable, 0.075 mg/kg of salinomycin in absolute ethanol was administered over a period of 30 seconds to one minute.
# heart = assay: Studies in anesthetized normal and infarcted dogs and isolated guinea pig and rabbit hearts; format: in vivo, dog; settings: in words
# intra-cellular Na+ = assay: Intracellular cation exchange (Na+ for K+); settings: in exchange for K+; in words
# [5] = system: skeletal and cardiac muscle; assay: Skeletal and cardiac myopathy upon chronic administration; format: in vivo; settings: in words
# Oral LD50 in chickens = settings: chicken, in vivo, oral administration
# Oral LD50 in dogs = settings: dog, in vivo, oral administration
# Solubility in water = format: physicochemical; settings: in words
# [6] = inotropic potency normalized for coronary flow increase at doubling dose, relative to lasalocid, anesthetized dogs
# [7] = reciprocal of dose required to double dP/dt Max., relative to lasalocid, anesthetized dogs
# [8] = 0.03 mg/kg in absolute ethanol, anesthetized dog
# [9] = 0.06 mg/kg, an hour after 0.03 mg/kg, same dog
# [10] = 0.075 mg/kg, seven dogs, P <.001
# [11] = 0.075 mg/kg, seven dogs, P <.01
molecule,measurement,setting,value
CC[C@@]1([C@@H]2O[C@@H]([C@H]3O[C@@](O)(CO)[C@H](C)C[C@@H]3C)C[C@@H]2C)CC[C@H]([C@]2(C)CC[C@]3(C[C@H](O)[C@@H](C)[C@@H]([C@@H](C)[C@@H](OC)[C@H](C)C(=O)O)O3)O2)O1 [Monensin],Coronary Flow Potency,[1]; [6],10.0
same,Inotropic Potency,[1]; [7],6.1
same,Ratio 2/4 (coronary flow potency / RBC K+ leak potency),[2],1.4
same,Ratio 1/4 (inotropic potency / RBC K+ leak potency),[2],.84
same,RBC K+ Leak Potency (column 4),[2],7.2
"CC[C@@H](C(=O)[C@@H](C)[C@@H](O)[C@H](C)CCc1ccc(C)c(O)c1C(=O)O)[C@H]1O[C@](CC)([C@H]2CC[C@](O)(CC)[C@H](C)O2)C[C@@H]1C [Lasalocid, lasalocid]",Coronary Flow Potency,[1],1.0
same,Inotropic Potency,[1],1.0
same,Ratio 2/1 (coronary flow potency / inotropic potency),"[1]; relative to lasalocid, anesthetized dogs",1.0
same,Ratio 2/4 (coronary flow potency / RBC K+ leak potency),[2],1.0
same,Ratio 1/4 (inotropic potency / RBC K+ leak potency),[2],1.0
same,concentration which leaked 15 mM K+/hr. from erythrocytes,[2]; human,11.5 µM
same,cardiac effects (prior art),cardiac muscle,cardiotrophic properties
COC1CC(CC2CCC(C)C(C(C)C(=O)O)O2)OC2(OC(C)(C3CCC(C)(C4OC(C5OC(O)(CO)C(C)CC5C)CC4C)O3)CC2C)C1C (stereo not drawn) [Nigerlcin],Coronary Flow Potency,[1]; [6],3.4
same,Inotropic Potency,[1]; [7],2.8
same,Ratio 2/4 (coronary flow potency / RBC K+ leak potency),[2],.21
same,Ratio 1/4 (inotropic potency / RBC K+ leak potency),[2],.17
same,RBC K+ Leak Potency (column 4),[2],16.4
Lysocellin,Inotropic Potency,[1]; [7],1.5
same,Ratio 1/4 (inotropic potency / RBC K+ leak potency),[2],.36
same,RBC K+ Leak Potency (column 4),[2],4.1
CO[C@H]1C[C@@H](C[C@H]2O[C@@](O)([C@H](C)C(=O)O)[C@H](C)[C@H](OC)[C@@]2(C)O[C@H]2CC[C@@H](OC)[C@H](C)O2)O[C@]2(O[C@@](C)([C@@H]3CC[C@H]([C@H]4CC[C@H]([C@H]5O[C@](C)(O)[C@H](C)C[C@@H]5C)O4)O3)[C@H](OC)[C@H]2C)[C@@H]1C [Septamycin],Inotropic Potency,[1]; [7],2.0
COC1CCC(OC2C(C)C(O)(C(C)C(=O)O)OC(CC3CC(OC)C(C)C4(O3)OC(C)(C3CCC(C5CCC(C6OC(C)(O)C(C)C(OC)C6C)O5)O3)C(OC)C4C)C2(C)OC)OC1C (stereo not drawn) [A-204],coronary flow potency compared with salinomycin,[1]; in words,markedly reduced coronary flow potency than salinomycin
same,inotropic potency compared with salinomycin,[1]; in words,slightly higher inotropic potency than salinomycin
same,Coronary Flow Potency,[1]; [6],14.1
same,Inotropic Potency,[1]; [7],13.1
same,Ratio 2/4 (coronary flow potency / RBC K+ leak potency),[2],.34
same,Ratio 1/4 (inotropic potency / RBC K+ leak potency),[2],.32
same,increase in potassium cellular leakage potency compared with salinomycin,[2]; human,400%
same,RBC K+ Leak Potency (column 4),[2],41.0
same,skeletal and cardiac myopathy upon chronic administration,[3],exhibits the undesirable side effects of skeletal and cardiac myopathy upon chronic administration
NCCc1ccc(O)c(O)c1 [dopamine],cardiac effects (prior art),cardiac muscle,exerts positive inotropic and chronotropic effects
CC[C@@H]1O[C@@H]([C@]2(C)C[C@@H](C)[C@](O)([C@]3(C)CC[C@@H]([C@@H](O)[C@]4(O)O[C@H](C[C@@]5(O)O[C@@H]([C@@H](C)[C@H](O)C[C@H]6CC[C@H](C)[C@@H]([C@@H](C)C(=O)O)O6)CC[C@@H]5C)[C@@H](C)C[C@H]4C)O3)O2)CC[C@@]1(C)O [X-206],Coronary Flow Potency,[1]; [6],8.6
same,Inotropic Potency,[1]; [7],7.7
same,Ratio 2/4 (coronary flow potency / RBC K+ leak potency),[2],.79
same,Ratio 1/4 (inotropic potency / RBC K+ leak potency),[2],.70
same,RBC K+ Leak Potency (column 4),[2],10.9
"CC[C@@H](C(=O)[C@@H](C)[C@@H](O)[C@H](C)[C@@H]1O[C@@H]([C@@H](CC)C(=O)O)CC[C@@H]1C)[C@H]1O[C@]2(C=C[C@@H](O)[C@]3(CC[C@@](C)([C@H]4CC[C@](O)(CC)[C@H](C)O4)O3)O2)[C@H](C)C[C@@H]1C [Salinomycin, salinomycin]","Coronary Flow, % of Control",[4]; [8],175%
same,"dP/dt, % of Control",[4]; [8],131%
same,"Coronary Flow, % of Control",[4]; [9],375%
same,"dP/dt, % of Control",[4]; [9],180%
same,"Cardiac Output, Mean % Control",[4]; [10],178%
same,"dP/dt Max., Mean % Control",[4]; [10],204%
same,"Coronary Flow, Mean % Control",[4]; [11],522%
same,"Coronary Resistance, Mean % Control",[4]; [11],38%
same,"Heart Rate, Mean % Control",[4]; [11],113%
same,"Total Peripheral Resistance, Mean % Control","[4]; 0.075 mg/kg, seven dogs, P <.02",77%
same,Cardiac Output + Salinomycin (mean ± SE),"[4]; 0.075 mg/kg, seven dogs, control 1.83 ± .2, P <.001",3.2 ± .2 L/min
same,Coronary Flow + Salinomycin (mean ± SE),"[4]; 0.075 mg/kg, seven dogs, control 21 ± 4.8, P <.01",93 ± 19 mL/min
same,Heart Rate + Salinomycin (mean ± SE),"[4]; 0.075 mg/kg, seven dogs, control 152 ± 7, P <.01",170 ± 4 min.^-1
same,Coronary Resistance + Salinomycin (mean ± SE),"[4]; 0.075 mg/kg, seven dogs, control 460 ± 98, P <.01",150 ± 25 dynes sec cm^-5
same,dP/dt Max. + Salinomycin (mean ± SE),"[4]; 0.075 mg/kg, seven dogs, control 2340 ± 265, P <.001",4700 ± 618 mm. Hg sec^-1
same,Total Peripheral Resistance + Salinomycin (mean ± SE),"[4]; 0.075 mg/kg, seven dogs, control 4200 ± 600, P <.02",3200 ± 400 dynes sec cm^-5
same,ED (2-fold dP/dt max),"[4]; Canis lupus familiaris, iv, in absolute ethanol, anesthetized dogs, read-out: dose that doubles left ventricular max. dP/dt",0.075 mg/kg
same,"cardiovascular effects (inotropic, chronotropic)",[4]; in words,positive inotropic effects with minimal chronotropic effects
same,separation between positive inotropy and coronary vasodilation,"[1]; compared with other carboxylic ionophores, in words",more pronounced separation between the two principal cardiotonic responses of positive inotropy and coronary vasodilation
same,Coronary Flow Potency,[1]; [6],19.6
same,Inotropic Potency,[1]; [7],12.1
same,"pharmacological effect vs potassium release, compared with other carboxylic ionophores","[2]; Table 3, columns 5 and 6, in words",superior to all other carboxylic ionophores examined
same,Ratio 2/4 (coronary flow potency / RBC K+ leak potency),[2],1.96
same,Ratio 1/4 (inotropic potency / RBC K+ leak potency),[2],1.21
same,RBC K+ Leak Potency (column 4),[2],10.0
same,"effect on cardiac output, coronary flow and myocardial work efficiency",heart,"increases in cardiac output, coronary flow and myocardial work efficiency"
same,effect on coronary arteries,heart,dilates the coronary arteries
same,effect on force of myocardial contraction and heart rate,heart,increases the force of myocardial contraction and heart rate
same,effect on total peripheral resistance,heart,decreases the total peripheral resistance
same,effect on intra-cellular Na+,intra-cellular Na+,increase in intra-cellular Na^+ in exchange for K^+
same,skeletal and cardiac myopathy upon chronic administration,[5],This undesirable effect has not been shown
same,LD50,Oral LD50 in chickens,125 mg/kg
same,LD50,Oral LD50 in dogs,10 mg/kg
same,solubility in water,Solubility in water,minimal solubility in water
CO[C@H]1CC[C@@H](O[C@H]2C[C@H]([C@]3(C)CC[C@]4(C[C@H](O)[C@@H](C)[C@@H]([C@@H](C)/C=C(\C)C(=O)[C@H](C)C[C@H](C)C(=O)O)O4)O3)O[C@]3(O[C@@H]([C@H]4O[C@@](O)(CO)[C@H](C)C[C@@H]4C)C[C@@H]3C)[C@@H]2C)O[C@@H]1C [Dianemycin],Coronary Flow Potency,[1]; [6],4.6
same,Inotropic Potency,[1]; [7],4.3
same,Ratio 2/4 (coronary flow potency / RBC K+ leak potency),[2],.25
same,Ratio 1/4 (inotropic potency / RBC K+ leak potency),[2],.24
same,RBC K+ Leak Potency (column 4),[2],18.0

# From patent publication US4129659A, “Method for improving cardiovascular function with salinomycin” (The University of Miami, priority 1977, dated 1978)
